Reference: paper PMC10530836, “Synthesis, Molecular Docking, and Biological Evaluation of Novel Anthranilic Acid Hybrid and Its Diamides as Antispasmodics” (International Journal of Molecular Sciences, 2023)
Read-outs that look alike come from different tables or passages of the source.

Tests used:
MTT cell viability assay [1] = assay type: cell-based, murine; settings: mouse, CCL-1 normal fibroblast cells (adherent); CCL-1, MTT, 72 h exposure, ± SD; read-out: In vitro cytotoxicity IC50
Method: (§1) To evaluate the biocompatibility of the hybrid compounds, their in vitro antiproliferative activity was assessed in a panel of human malignant cell lines of different origin (K-562 and LAMA-84 suspension-growing myeloid leukemia cells, positive for the Philadelphia chromosome, and the urothelial bladder carcinoma cell line T-24 of adherent type). Non-malignant murine fibroblast cells (CCL-1) were also used as a screening platform. All cell lines were purchased from the German Collection of Microorganisms and Cell Cultures (DSMZ GmbH, Braunschweig, Germany). Cell cultures were cultivated in a growth medium RPMI 1640 supplemented with 10% fetal bovine serum (FBS), and 5% L-glutamine and were incubated under standard conditions of 37 °C and 5% humidified CO2 atmosphere. The effects of the newly synthesized anthranilic derivatives on cell viability were measured using a validated colorimetric assay for evaluating cell viability, known as the Mosmann MTT method. Exponential-phased cells were harvested and seeded (100 μL/well) in 96-well plates at the appropriate density (3 × 10^5 for the suspension cultures LAMA-84 and K-562 and 1.5 × 10^5 for the adherent T-24 and CCL-1 cells). Following a 24 h incubation, cells were treated with various concentrations of the experimental compounds in the concentration range of 200–12.5 μM. After an exposure time of 72 h, filter-sterilized MTT substrate solution (5 mg/mL in PBS) was added to each well of the culture plate. A further 2–4 h incubation allowed for the formation of purple insoluble formazan crystals. The latter was dissolved in isopropyl alcohol solution containing 5% formic acid prior to absorbance measurement at 550 nm. Collected absorbance values were blanked against MTT and isopropanol solution and normalized to the mean value of untreated control (100% cell viability).

human albumin = target: T1, human albumin (Homo sapiens, UniProt P02768); experiment: Inhibition of albumin denaturation (anti-inflammatory activity); assay type: biochemical; settings: heat-induced denaturation
T1 construct: purchased Octapharma (IP) SPRL Albunorm 20
Method: Anti-denaturation assay was conducted as described by Kumari et al. with slight modifications. The reaction mixture consisted of 0.5 mL of 5% aqueous solution of human albumin (Albunorm 20, Octapharma (IP) SPRL, 1070 Anderlecht, Belgium) and 0.2 mL of the tested compound, dissolved in DMSO, at different concentrations (20–500 μg/mL). The samples were incubated at 37 °C for 15 min. After that, 2.5 mL phosphate-buffered saline (pH 6.3) was added to each tube and the samples were heated for 30 min to 80 °C and then cooled for 5 min. Turbidity was measured spectrophotometrically at 660 nm (Cary 60 UV-Vis, Agilent Technologies, Santa Clara, CA, USA). For the blank sample, a mixture of 2.5 mL buffer and 0.2 mL DMSO was used instead of the compounds, while the product control test lacked the compounds’ concentration having 0.5 mL serum albumin, and 2.5 mL buffer only. The percentage inhibition of protein denaturation was calculated as follows:Percentage of inhibition denaturation = (Absorbancecontrol − Absorbancesample) / Absorbancecontrol × 100
The control represents 100% protein denaturation.
Commercially available over-the-counter non-steroidal anti-inflammatory drugs diclofenac sodium and acetylsalicylic acid were used for comparison. Their anti-inflammatory effect was determined as a percentage of inhibition of albumin denaturation following the same protocol as for the novel compounds.

MTT cell viability assay [2] = assay type: cell-based; settings: human, 72 h exposure, ± SD, read-out: In vitro cytotoxicity IC50
Method: as §1

[3] = system: Escherichia coli ATCC 25922; experiment: Antimicrobial activity, agar well diffusion; assay type: cell-based; settings: Dose 0.6 mg/disk, dwell = 6 mm
Text: (§2) Twenty tested microorganisms including six Gram-positive bacteria (Bacillus subtilis ATCC 6633, Bacillus amyloliquefaciens 4BCL-YT, Staphylococcus aureus ATCC 25923, Listeria monocytogenes NBIMCC 8632, Enterococcus faecalis ATCC 19433), six Gram-negative bacteria (Salmonella enteritidis ATCC 13076, Klebsiella sp.—clinical isolate, Escherichia coli ATCC 25922, Proteus vulgaris ATCC 6380, Pseudomonas aeruginosa ATCC 9027), two yeasts (Candida albicans NBIMCC 74, Saccharomyces cerevisiae ATCC 9763), and six fungi (Aspergillus niger ATCC 1015, Aspergillus flavus, Penicillium sp., Rhizopus sp., Mucor sp.—plant isolates, Fusarium moniliforme ATCC 38932) from the collection of the Department of Microbiology at the University of Food Technologies—Plovdiv, Bulgaria, were selected for the antimicrobial activity test. The antimicrobial activity of the samples was determined by the agar well diffusion method. The tested bacteria B. subtilis and B. amyloliquefaciens were cultured on LBG agar at 30 °C. The test bacteria S. aureus, L. monocytogenes, E. faecalis, S. enteritidis, Klebsiella sp., E. coli, P. vulgaris, and P. aeruginosa were cultured on LBG agar at 37 °C for 24 h. The yeast C. albicans was cultured on MEA at 37 °C, while S. cerevisiae was cultured on MEA at 30 °C for 24 h. The fungi A. niger, A. flavus, Penicillium sp., Rhizopus sp., Mucor sp., and F. moniliforme were grown on MEA at 30 °C for 7 days or until sporulation. The inocula of the tested bacteria/yeasts was prepared by homogenization of a small amount of biomass in 5 mL of sterile 0.5% NaCl. The inocula of tested fungi were prepared by the addition of 5 mL of sterile 0.5% NaCl into the tubes. After stirring by vortex V-1 plus (Biosan), they were filtered and replaced in other tubes before use. The number of viable cells and fungal spores was determined using a bacterial counting chamber Thoma (Poly-Optik, GmbH, Bad Blankenburg, Germany). Their final concentrations were adjusted to 10^8 cfu/mL for bacterial/yeast cells and 10^5 cfu/mL for fungal spores and then inoculated in preliminarily melted and tempered at 45–48 °C LBG/MEA agar media. Next, the inoculated media were transferred in a quantity of 18 mL in sterile Petri plates (d = 90 mm) (Gosselin™, Hazebrouck, France) and allowed to harden. Then, six wells (d = 6 mm) per plate were cut, and triplicates of 60 μL of each extract were pipetted into the agar wells. The Petri plates were incubated in identical conditions. The antimicrobial activity was determined by measuring the diameter of the inhibition zones around the wells on the 24th and 48th h of incubation. Tested microorganisms with inhibition zones of 18 mm or more were considered sensitive; moderately sensitive were those in which the zones were from 12 to 18 mm; resistant were those in which the inhibition zones were up to 12 mm or completely missing.

Penicillium chrysogenum = experiment: Antimicrobial activity, agar well diffusion; assay type: cell-based; settings: Dose 0.6 mg/disk, dwell = 6 mm
Text: as §2

[4] = system: Aspergillus niger ATCC 1015; experiment: Antimicrobial activity, agar well diffusion; assay type: cell-based; settings: Dose 0.6 mg/disk, dwell = 6 mm
Text: as §2

Rhizopus sp. = experiment: Antimicrobial activity, agar well diffusion; assay type: cell-based; settings: Dose 0.6 mg/disk, dwell = 6 mm
Text: as §2

Aspergillus flavus = experiment: Antimicrobial activity, agar well diffusion; assay type: cell-based; settings: Dose 0.6 mg/disk, dwell = 6 mm
Text: as §2

[5] = system: Bacillus subtilis ATCC 6633; experiment: Antimicrobial activity, agar well diffusion; assay type: cell-based; settings: Dose 0.6 mg/disk, dwell = 6 mm
Text: as §2

[6] = system: Micrococcus luteus 2YC-YT; experiment: Antimicrobial activity, agar well diffusion; assay type: cell-based; settings: Dose 0.6 mg/disk, dwell = 6 mm
Text: as §2

[7] = system: Pseudomonas aeruginosa ATCC 9027; experiment: Antimicrobial activity, agar well diffusion; assay type: cell-based; settings: Dose 0.6 mg/disk, dwell = 6 mm
Text: as §2

[8] = system: Salmonella enteritidis ATCC 13076; experiment: Antimicrobial activity, agar well diffusion; assay type: cell-based; settings: Dose 0.6 mg/disk, dwell = 6 mm
Text: as §2

[9] = system: Klebsiella pneumoniae ATCC 13883; experiment: Antimicrobial activity, agar well diffusion; assay type: cell-based; settings: Dose 0.6 mg/disk, dwell = 6 mm
[10] = system: Enterococcus faecalis ATCC 29212; experiment: Antimicrobial activity, agar well diffusion; assay type: cell-based; settings: Dose 0.6 mg/disk, dwell = 6 mm
[11] = system: Saccharomyces cerevisiae ATCC 9763; experiment: Antimicrobial activity, agar well diffusion; assay type: cell-based; settings: Dose 0.6 mg/disk, dwell = 6 mm
Text: as §2

[12] = system: Proteus vulgaris ATCC 6380; experiment: Antimicrobial activity, agar well diffusion; assay type: cell-based; settings: Dose 0.6 mg/disk, dwell = 6 mm
Text: as §2

[13] = system: Salmonella typhimurium NBIMCC 1672; experiment: Antimicrobial activity, agar well diffusion; assay type: cell-based; settings: Dose 0.6 mg/disk, dwell = 6 mm
Text: as §2

[14] = system: Listeria monocytogenes NBIMCC 8632; experiment: Antimicrobial activity, agar well diffusion; assay type: cell-based; settings: Dose 0.6 mg/disk, dwell = 6 mm
Text: as §2

[15] = system: Fusarium moniliforme ATCC 38932; experiment: Antimicrobial activity, agar well diffusion; assay type: cell-based; settings: Dose 0.6 mg/disk, dwell = 6 mm
Text: as §2

[16] = system: Bacillus amyloliquefaciens 4BCL-YT; experiment: Antimicrobial activity, agar well diffusion; assay type: cell-based; settings: Dose 0.6 mg/disk, dwell = 6 mm
Text: as §2

[17] = system: K-562, LAMA-84, T-24, CCL-1 cell lines; parameters: method as in PMID 36831141; settings: reference spasmolytic drug; cited from earlier work
[18] = system: Gram-positive bacteria, Gram-negative bacteria, yeasts and fungi; parameters: method as in PMID 36831141; settings: same concentration range; cited from earlier work
[19] = K-562 myeloid leukemia cells (suspension), K-562, MTT
[20] = LAMA-84 myeloid leukemia cells (suspension), LAMA-84, MTT
[21] = T-24 urothelial bladder carcinoma cells (adherent), T-24, MTT

T1 sequence (P02768 25-609): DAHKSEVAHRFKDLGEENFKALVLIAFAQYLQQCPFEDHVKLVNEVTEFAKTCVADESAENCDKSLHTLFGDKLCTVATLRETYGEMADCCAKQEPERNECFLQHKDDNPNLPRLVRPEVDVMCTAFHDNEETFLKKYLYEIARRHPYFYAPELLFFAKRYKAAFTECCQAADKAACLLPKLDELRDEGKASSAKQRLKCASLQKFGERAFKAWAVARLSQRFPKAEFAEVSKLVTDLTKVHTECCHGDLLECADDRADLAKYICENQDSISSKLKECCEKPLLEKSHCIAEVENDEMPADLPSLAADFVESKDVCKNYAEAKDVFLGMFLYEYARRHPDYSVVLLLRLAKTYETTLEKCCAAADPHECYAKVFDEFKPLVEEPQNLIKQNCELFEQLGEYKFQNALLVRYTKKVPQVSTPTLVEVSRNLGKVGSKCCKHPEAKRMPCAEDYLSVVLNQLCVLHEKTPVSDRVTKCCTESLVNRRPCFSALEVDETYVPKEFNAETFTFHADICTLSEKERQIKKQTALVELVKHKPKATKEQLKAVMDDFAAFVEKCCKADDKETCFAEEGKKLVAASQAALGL

| Compound | IC50 at 72 h (MTT cell viability assay [1]) [µM] | IC50 (human albumin) [mM] | IC50 at 72 h (MTT cell viability assay [2]; [19]) [µM] | IC50 at 72 h (MTT cell viability assay [2]; [20]) [µM] | IC50 at 72 h (MTT cell viability assay [2]; [21]) [µM] | Inhibition Zones [3] [mm] | Inhibition Zones (Penicillium chrysogenum) [mm] | Inhibition Zones [4] [mm] | Inhibition Zones (Rhizopus sp.) [mm] | Inhibition Zones (Aspergillus flavus) [mm] | Inhibition Zones [5] [mm] | Inhibition Zones [6] [mm] | Inhibition Zones [7] [mm] | Inhibition Zones [8] [mm] | Inhibition Zones [9] [mm] | Inhibition Zones [11] [mm] | Inhibition Zones [12] [mm] | Inhibition Zones [14] [mm] | Inhibition Zones [15] [mm] | other results |
| --- | --- | --- | --- | --- | --- | --- | --- | --- | --- | --- | --- | --- | --- | --- | --- | --- | --- | --- | --- | --- |
| O=C(Cc1ccccc1)Nc1ccccc1C(=O)NCCc1cccc(Cl)c1 [Compound 4c, N-(3-chlorophenethyl)-2-(2-phenylacetamido)benzamide] | 69.5 ± 6.1 | 1.71 | 27.4 ± 2.4 | 31.6 ± 1.1 | > 200 | 10 | 8 | 10 | 8 | 8 | 9 | 12 | 10 | 8 | – | – | – | – | – | – |
| O=C(Nc1ccccc1C(=O)NCCc1cccc(Cl)c1)c1ccccc1Cl [Compound 4d, 2-chloro-N-(2-((3-chlorophenethyl)carbamoyl)phenyl)benzamide] | > 200 | 1.67 | 99.2 ± 8.8 | 183 ± 13.3 | > 200 | 12 | 15 | 10 | 9 | 11 | 11 | 12 | 10 | 10 | 8 | 8 | 8 | 11 | 8 | Inhibition Zones [10]: 8 mm; Inhibition Zones [13]: 12 mm; Inhibition Zones [16]: 10 mm |
| O=C(NCCc1cccc(Cl)c1)c1ccccc1NC(=O)C(Cl)c1ccccc1 (centres unmarked) [Compound 4e, 2-(2-chloro-2-phenylacetamido)-N-(3-chlorophenethyl)benzamide] | 69.1 ± 4.6 | – | 102 ± 7.9 | 193 ± 14.7 | 120 ± 9.9 | 10 | 8 | 10 | 9 | 8 | 10 | 9 | 10 | 11 | 16 | 8 | 8 | 9 | 8 | – |
| CCN(CCCCOC(=O)c1ccc(OC)c(OC)c1)C(C)Cc1ccc(OC)cc1 (centres unmarked) [mebeverine] | – | – | – | – | – | – | – | – | – | – | – | – | – | – | – | – | – | – | – | half-inhibitory concentrations [17]: under the hundred-micromolar range; antimicrobial activity (overall, in words) [18]: did not show any antimicrobial activity |
